Data reported in PubChem BioAssay AID2060335 (Molecular Pharmacology Branch, DTP, NCI, 2025).
Where “and” joins values, the source holds several entries; their conditions need not be identical. Equal values may be shown once.

System: DU-145 multicell spheroids with HUVEC/MSC, viability
Experiment: Anticancer human tumor DU-145 cell line growth inhibition [IpAb];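 also: spheroids exposed to agents for seven days before measurement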;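 as to viability, T/C: percent of DMSO vehicle control viability so 100% = untreated level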
Settings: for viability, T/C: stronger effect = lower value
Outline: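 Spheroids of 60% malignant cells, 25% HUVEC and 15% MSC were exposed to targeted agents combined with ipatasertib or abemaciclib. Doses started at or near clinical Cmax (10 microM when unknown) and fell in half-log steps.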

[1] = curve of first compound, second compound 0.01 µM
[2] = curve of first compound, second compound 0.0316 µM
[3] = curve of first compound, second compound 0.1 µM
[4] = curve of first compound, second compound 0.316 µM
[5] = curve of first compound, second compound 1 µM
[6] = second compound 0.01 µM, first compound 0.0316 µM
[7] = second compound 0.01 µM, first compound 0.1 µM
[8] = second compound 0.01 µM, first compound 0.316 µM
[9] = second compound 0.01 µM, first compound 1 µM
[10] = second compound 0.01 µM, first compound 3.16 µM
[11] = second compound 0.01 µM, first compound 10 µM
[12] = second compound 0.0316 µM, first compound 0.0316 µM
[13] = second compound 0.0316 µM, first compound 0.1 µM
[14] = second compound 0.0316 µM, first compound 0.316 µM
[15] = second compound 0.0316 µM, first compound 1 µM
[16] = second compound 0.0316 µM, first compound 3.16 µM
[17] = second compound 0.0316 µM, first compound 10 µM
[18] = second compound 0.1 µM, first compound 0.0316 µM
[19] = second compound 0.1 µM, first compound 0.1 µM
[20] = second compound 0.1 µM, first compound 0.316 µM
[21] = second compound 0.1 µM, first compound 1 µM
[22] = second compound 0.1 µM, first compound 3.16 µM
[23] = second compound 0.1 µM, first compound 10 µM
[24] = second compound 0.316 µM, first compound 0.0316 µM
[25] = second compound 0.316 µM, first compound 0.1 µM
[26] = second compound 0.316 µM, first compound 0.316 µM
[27] = second compound 0.316 µM, first compound 1 µM
[28] = second compound 0.316 µM, first compound 3.16 µM
[29] = second compound 0.316 µM, first compound 10 µM
[30] = second compound 1 µM, first compound 0.0316 µM
[31] = second compound 1 µM, first compound 0.1 µM
[32] = second compound 1 µM, first compound 0.316 µM
[33] = second compound 1 µM, first compound 1 µM
[34] = second compound 1 µM, first compound 3.16 µM
[35] = second compound 1 µM, first compound 10 µM
[36] = curve of first compound, second compound 3.16 µM
[37] = curve of first compound, second compound 10 µM

Compound: Cc1nc(NC(=O)N2CCCC2C(N)=O)sc1-c1ccnc(C(C)(C)C(F)(F)F)c1 (stereo not drawn) + CCN1CCN(Cc2ccc(Nc3ncc(F)c(-c4cc(F)c5nc(C)n(C(C)C)c5c4)n3)nc2)CC1
- IC50 [1]: 0.186 µM
- IC50 [2]: 0.116 µM
- IC50 [3]: 0.0973 µM
- IC50 [4]: 0.0941 µM
- IC50 [5]: 0.168 µM
- viability, T/C [6]: 75.3%
- viability, T/C [7]: 59.4%
- viability, T/C [8]: 39.9%
- viability, T/C [9]: 31.5%
- viability, T/C [10]: 19.4%
- viability, T/C [11]: 9.2%
- viability, T/C [12]: 73.5%
- viability, T/C [13]: 45.8%
- viability, T/C [14]: 38%
- viability, T/C [15]: 29.5%
- viability, T/C [16]: 19.2%
- viability, T/C [17]: 8.68%
- viability, T/C [18]: 67.1%
- viability, T/C [19]: 49.2%
- viability, T/C [20]: 33.8%
- viability, T/C [21]: 28.6%
- viability, T/C [22]: 20.5%
- viability, T/C [23]: 11%
- viability, T/C [24]: 61%
- viability, T/C [25]: 49.7%
- viability, T/C [26]: 36.8%
- viability, T/C [27]: 32.4%
- viability, T/C [28]: 24.1%
- viability, T/C [29]: 16%
- viability, T/C [30]: 58.1%
- viability, T/C [31]: 55%
- viability, T/C [32]: 43.8%
- viability, T/C [33]: 39%
- viability, T/C [34]: 28.4%
- viability, T/C [35]: 21.5%

Compound: Cn1cnc2c(F)c(Nc3ccc(Br)cc3Cl)c(C(=O)NOCCO)cc21
- viability, T/C (compound 0.00949 µM): 84.1% and 81.8%
- viability, T/C (compound 0.03 µM): 67.6% and 74.4%
- viability, T/C (compound 0.0949 µM): 60.8% and 66.5%
- viability, T/C (compound 0.3 µM): 55.5% and 53.2%
- viability, T/C (compound 0.949 µM): 48% and 51.1%
- viability, T/C (compound 3 µM): 42.9% and 37.9%
- IC50 (curve of compound): 0.597 µM and 0.704 µM

Compound: CC1(C)CCC(CN2CCN(c3ccc(C(=O)NS(=O)(=O)c4ccc(NCC5CCOCC5)c([N+](=O)[O-])c4)c(Oc4cnc5[nH]ccc5c4)c3)CC2)=C(c2ccc(Cl)cc2)C1
- viability, T/C (compound 0.0316 µM): 104%
- viability, T/C (compound 0.1 µM): 103% and 109%
- viability, T/C (compound 0.316 µM): 104% and 107%
- viability, T/C (compound 1 µM): 96.4% and 99.4%
- viability, T/C (compound 3.16 µM): 69.2% and 76%
- viability, T/C (compound 10 µM): 10.1% and 10.8%
- IC50 (curve of compound): 4.53 µM and 4.99 µM

Compound: Cc1nc(NC(=O)N2CCCC2C(N)=O)sc1-c1ccnc(C(C)(C)C(F)(F)F)c1 (stereo not drawn) + CC(C)NCC(C(=O)N1CCN(c2ncnc3c2C(C)CC3O)CC1)c1ccc(Cl)cc1
- IC50 [3]: 0.0947 µM
- IC50 [4]: < 0.0316 µM
- IC50 [5]: < 0.0316 µM
- IC50 [36]: < 0.0316 µM
- IC50 [37]: < 0.0316 µM
- viability, T/C [18]: 65.7%
- viability, T/C [19]: 49.2%
- viability, T/C [20]: 32.1%
- viability, T/C [21]: 27.9%
- viability, T/C [22]: 18.1%
- viability, T/C [23]: 7.81%
- viability, T/C [24]: 40%
- viability, T/C [25]: 35%
- viability, T/C [26]: 26.2%
- viability, T/C [27]: 22.4%
- viability, T/C [28]: 14.7%
- viability, T/C [29]: 6.56%
- viability, T/C [30]: 27.1%
- viability, T/C [31]: 24.3%
- viability, T/C [32]: 20.5%
- viability, T/C [33]: 17.1%
- viability, T/C [34]: 12.4%
- viability, T/C [35]: 5.68%
- viability, T/C (second compound 3.16 µM, first compound 0.0316 µM): 18.3%
- viability, T/C (second compound 3.16 µM, first compound 0.1 µM): 18.5%
- viability, T/C (second compound 3.16 µM, first compound 0.316 µM): 14.1%
- viability, T/C (second compound 3.16 µM, first compound 1 µM): 14%
- viability, T/C (second compound 3.16 µM, first compound 3.16 µM): 8.48%
- viability, T/C (second compound 3.16 µM, first compound 10 µM): 5.66%
- viability, T/C (second compound 10 µM, first compound 0.0316 µM): 14.9%
- viability, T/C (second compound 10 µM, first compound 0.1 µM): 13.5%
- viability, T/C (second compound 10 µM, first compound 0.316 µM): 11.8%
- viability, T/C (second compound 10 µM, first compound 1 µM): 9.73%
- viability, T/C (second compound 10 µM, first compound 3.16 µM): 8.28%
- viability, T/C (second compound 10 µM, first compound 10 µM): 5.36%

Compound: Cn1ncnc1[C@H]1c2n[nH]c(=O)c3cc(F)cc(c23)N[C@@H]1c1ccc(F)cc1
- viability, T/C (compound 0.000316 µM): 109% and 101%
- viability, T/C (compound 0.001 µM): 105% and 99.7%
- viability, T/C (compound 0.00316 µM): 97.9% and 92.2%
- viability, T/C (compound 0.01 µM): 99.3% and 96.5%
- viability, T/C (compound 0.0316 µM): 95.1% and 97.6%
- viability, T/C (compound 0.1 µM): 92.9% and 80.5%
- IC50 (curve of compound): > 0.1 µM

Compound: CC(=O)c1c(C)c2cnc(Nc3ccc(N4CCNCC4)cn3)nc2n(C2CCCC2)c1=O + CC(C)NCC(C(=O)N1CCN(c2ncnc3c2C(C)CC3O)CC1)c1ccc(Cl)cc1
- IC50 [3]: > 0.3 µM
- IC50 [4]: > 0.3 µM
- IC50 [5]: < 0.000949 µM
- IC50 [36]: < 0.000949 µM
- IC50 [37]: < 0.000949 µM
- viability, T/C (second compound 0.1 µM, first compound 0.000949 µM): 85.3%
- viability, T/C (second compound 0.1 µM, first compound 0.003 µM): 79.7%
- viability, T/C (second compound 0.1 µM, first compound 0.00949 µM): 83.4%
- viability, T/C (second compound 0.1 µM, first compound 0.03 µM): 89.2%
- viability, T/C (second compound 0.1 µM, first compound 0.0949 µM): 81.8%
- viability, T/C (second compound 0.1 µM, first compound 0.3 µM): 83.7%
- viability, T/C (second compound 0.316 µM, first compound 0.000949 µM): 53%
- viability, T/C (second compound 0.316 µM, first compound 0.003 µM): 52.1%
- viability, T/C (second compound 0.316 µM, first compound 0.00949 µM): 52.2%
- viability, T/C (second compound 0.316 µM, first compound 0.03 µM): 48.1%
- viability, T/C (second compound 0.316 µM, first compound 0.0949 µM): 48.8%
- viability, T/C (second compound 0.316 µM, first compound 0.3 µM): 54.7%
- viability, T/C (second compound 1 µM, first compound 0.000949 µM): 29.3%
- viability, T/C (second compound 1 µM, first compound 0.003 µM): 30.7%
- viability, T/C (second compound 1 µM, first compound 0.00949 µM): 28.9%
- viability, T/C (second compound 1 µM, first compound 0.03 µM): 28.7%
- viability, T/C (second compound 1 µM, first compound 0.0949 µM): 28.6%
- viability, T/C (second compound 1 µM, first compound 0.3 µM): 27.8%
- viability, T/C (second compound 3.16 µM, first compound 0.000949 µM): 20.3%
- viability, T/C (second compound 3.16 µM, first compound 0.003 µM): 19.7%
- viability, T/C (second compound 3.16 µM, first compound 0.00949 µM): 19.2%
- viability, T/C (second compound 3.16 µM, first compound 0.03 µM): 19.5%
- viability, T/C (second compound 3.16 µM, first compound 0.0949 µM): 20.3%
- viability, T/C (second compound 3.16 µM, first compound 0.3 µM): 19.9%
- viability, T/C (second compound 10 µM, first compound 0.000949 µM): 16.8%
- viability, T/C (second compound 10 µM, first compound 0.003 µM): 15.5%
- viability, T/C (second compound 10 µM, first compound 0.00949 µM): 15.5%
- viability, T/C (second compound 10 µM, first compound 0.03 µM): 17.2%
- viability, T/C (second compound 10 µM, first compound 0.0949 µM): 15.6%
- viability, T/C (second compound 10 µM, first compound 0.3 µM): 16.1%

Compound: C=CC(=O)N1CCN(c2nc(=O)n(-c3c(C)ccnc3C(C)C)c3nc(-c4c(O)cccc4F)c(F)cc23)C(C)C1 (stereo not drawn) + CCN1CCN(Cc2ccc(Nc3ncc(F)c(-c4cc(F)c5nc(C)n(C(C)C)c5c4)n3)nc2)CC1
- IC50 [1]: 7.92 µM
- IC50 [2]: 7.52 µM
- IC50 [3]: 8.37 µM
- IC50 [4]: 9.55 µM
- IC50 [5]: 6.07 µM
- viability, T/C [6]: 94.6%
- viability, T/C [7]: 104%
- viability, T/C [8]: 111%
- viability, T/C [9]: 104%
- viability, T/C [10]: 86.1%
- viability, T/C [11]: 40.6%
- viability, T/C [12]: 91.2%
- viability, T/C [13]: 95%
- viability, T/C [14]: 98.7%
- viability, T/C [15]: 96.5%
- viability, T/C [16]: 81.5%
- viability, T/C [17]: 39.4%
- viability, T/C [18]: 82.8%
- viability, T/C [19]: 81%
- viability, T/C [20]: 91.5%
- viability, T/C [21]: 93.3%
- viability, T/C [22]: 78.4%
- viability, T/C [23]: 44.8%
- viability, T/C [24]: 78.8%
- viability, T/C [25]: 78.3%
- viability, T/C [26]: 82.4%
- viability, T/C [27]: 85.8%
- viability, T/C [28]: 77.3%
- viability, T/C [29]: 49%
- viability, T/C [30]: 66.1%
- viability, T/C [31]: 64.4%
- viability, T/C [32]: 65.9%
- viability, T/C [33]: 70.5%
- viability, T/C [34]: 67.5%
- viability, T/C [35]: 37.3%

Compound: C=CC(=O)N1CCN(c2nc(=O)n(-c3c(C)ccnc3C(C)C)c3nc(-c4c(O)cccc4F)c(F)cc23)C(C)C1 (stereo not drawn)
- viability, T/C (compound 0.0316 µM): 104% and 107%
- viability, T/C (compound 0.1 µM): 109% and 108%
- viability, T/C (compound 0.316 µM): 107% and 109%
- viability, T/C (compound 1 µM): 112% and 113%
- viability, T/C (compound 3.16 µM): 90.7% and 103%
- viability, T/C (compound 10 µM): 44.1% and 48.9%
- IC50 (curve of compound): 8.66 µM and 9.82 µM
